The values below come from ChEMBL document CHEMBL1909046, “DrugMatrix in vitro pharmacology data”.

The target of one assay is Insulin receptor (Rattus norvegicus, UniProt P15127). The class given is cell membranes, Wistar, Liver, Membrane. Further: in other assays of this panel Not Active means under 50% inhibition at 10 µM.
A further assay addresses Melanocortin receptor 3 (Homo sapiens, UniProt P41968). It counts as cell membranes, HEK293, Membrane.
The target of a further assay is Melanocortin receptor 4 (Homo sapiens, UniProt P32245). It counts as cell membranes, HEK293, Membrane. Further: in other assays of this panel Not Active means under 50% inhibition at 10 µM.
Melanocortin receptor 4, sequence (P32245 whole entry): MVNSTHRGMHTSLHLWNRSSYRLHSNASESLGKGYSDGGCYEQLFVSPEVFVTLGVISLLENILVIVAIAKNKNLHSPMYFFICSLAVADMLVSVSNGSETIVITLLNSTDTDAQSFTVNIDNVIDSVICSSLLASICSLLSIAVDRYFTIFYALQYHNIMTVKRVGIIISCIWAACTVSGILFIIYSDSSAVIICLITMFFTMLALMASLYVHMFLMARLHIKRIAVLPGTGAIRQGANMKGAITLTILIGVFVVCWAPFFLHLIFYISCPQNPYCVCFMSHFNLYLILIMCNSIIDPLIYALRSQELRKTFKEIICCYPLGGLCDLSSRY
In a further assay the target is Nitric oxide synthase 1 (Rattus norvegicus, UniProt P29476). The class given is tissue-based, Cerebellum. Further: in other assays of this panel Not Active means under 50% inhibition at 10 µM.
Nitric oxide synthase 1, sequence (P29476 whole entry): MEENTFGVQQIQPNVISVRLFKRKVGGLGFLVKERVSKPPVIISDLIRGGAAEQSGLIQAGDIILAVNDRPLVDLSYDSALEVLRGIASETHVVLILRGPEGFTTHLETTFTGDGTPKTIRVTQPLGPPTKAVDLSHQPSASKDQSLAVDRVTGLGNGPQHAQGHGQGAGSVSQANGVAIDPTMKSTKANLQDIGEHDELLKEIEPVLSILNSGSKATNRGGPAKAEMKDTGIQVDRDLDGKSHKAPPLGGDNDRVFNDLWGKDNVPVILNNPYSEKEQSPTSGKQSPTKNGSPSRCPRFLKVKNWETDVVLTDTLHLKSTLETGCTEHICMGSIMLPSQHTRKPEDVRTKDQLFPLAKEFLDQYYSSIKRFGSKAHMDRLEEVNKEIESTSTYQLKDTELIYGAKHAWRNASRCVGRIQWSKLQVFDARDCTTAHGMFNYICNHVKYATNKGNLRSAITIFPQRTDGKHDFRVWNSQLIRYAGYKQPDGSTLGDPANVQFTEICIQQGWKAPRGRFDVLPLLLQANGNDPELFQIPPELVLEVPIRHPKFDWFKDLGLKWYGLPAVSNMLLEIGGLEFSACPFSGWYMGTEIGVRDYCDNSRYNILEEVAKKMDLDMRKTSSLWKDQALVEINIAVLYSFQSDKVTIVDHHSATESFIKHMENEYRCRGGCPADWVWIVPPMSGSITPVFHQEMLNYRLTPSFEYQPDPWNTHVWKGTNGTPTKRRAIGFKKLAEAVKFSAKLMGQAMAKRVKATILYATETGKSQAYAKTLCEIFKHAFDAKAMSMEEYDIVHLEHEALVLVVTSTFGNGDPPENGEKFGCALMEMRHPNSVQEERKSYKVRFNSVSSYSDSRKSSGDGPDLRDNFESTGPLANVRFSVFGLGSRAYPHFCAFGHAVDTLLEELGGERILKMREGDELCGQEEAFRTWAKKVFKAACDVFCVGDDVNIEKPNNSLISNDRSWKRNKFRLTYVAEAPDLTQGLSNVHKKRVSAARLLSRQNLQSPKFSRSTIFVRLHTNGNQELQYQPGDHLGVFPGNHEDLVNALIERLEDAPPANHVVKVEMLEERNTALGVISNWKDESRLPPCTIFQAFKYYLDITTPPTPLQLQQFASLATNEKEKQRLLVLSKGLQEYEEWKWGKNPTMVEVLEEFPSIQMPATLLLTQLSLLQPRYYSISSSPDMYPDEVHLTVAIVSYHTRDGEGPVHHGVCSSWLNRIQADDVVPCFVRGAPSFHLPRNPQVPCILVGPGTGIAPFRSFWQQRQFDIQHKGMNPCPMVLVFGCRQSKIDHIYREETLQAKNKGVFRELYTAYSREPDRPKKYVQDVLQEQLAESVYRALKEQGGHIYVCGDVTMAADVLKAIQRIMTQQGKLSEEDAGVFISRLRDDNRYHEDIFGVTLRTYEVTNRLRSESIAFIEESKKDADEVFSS
The target of another assay is Adenosine receptor A2a (Homo sapiens, UniProt P29274). Description: DRUGMATRIX: Adenosine A2A radioligand binding (ligand: […]). The class given is cell membranes, HEK293, Membrane. The settings on record: hek293; Not Active = under 50% inhibition at 10 µM.
Adenosine receptor A2a, sequence (P29274 whole entry): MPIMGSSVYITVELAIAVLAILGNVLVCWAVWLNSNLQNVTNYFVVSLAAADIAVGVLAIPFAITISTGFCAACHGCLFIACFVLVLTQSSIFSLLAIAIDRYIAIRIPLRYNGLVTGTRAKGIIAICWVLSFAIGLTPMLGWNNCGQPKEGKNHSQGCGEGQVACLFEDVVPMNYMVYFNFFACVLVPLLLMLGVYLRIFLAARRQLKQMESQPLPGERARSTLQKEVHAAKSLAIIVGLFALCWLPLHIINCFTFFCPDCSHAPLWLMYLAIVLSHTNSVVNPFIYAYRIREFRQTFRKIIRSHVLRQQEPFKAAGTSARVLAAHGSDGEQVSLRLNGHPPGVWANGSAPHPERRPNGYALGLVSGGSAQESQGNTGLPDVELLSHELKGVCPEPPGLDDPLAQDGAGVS
Assay [1] has as its target T1, Alpha-1B adrenergic receptor (Rattus norvegicus, UniProt P15823).
T1 sequence (P15823 whole entry): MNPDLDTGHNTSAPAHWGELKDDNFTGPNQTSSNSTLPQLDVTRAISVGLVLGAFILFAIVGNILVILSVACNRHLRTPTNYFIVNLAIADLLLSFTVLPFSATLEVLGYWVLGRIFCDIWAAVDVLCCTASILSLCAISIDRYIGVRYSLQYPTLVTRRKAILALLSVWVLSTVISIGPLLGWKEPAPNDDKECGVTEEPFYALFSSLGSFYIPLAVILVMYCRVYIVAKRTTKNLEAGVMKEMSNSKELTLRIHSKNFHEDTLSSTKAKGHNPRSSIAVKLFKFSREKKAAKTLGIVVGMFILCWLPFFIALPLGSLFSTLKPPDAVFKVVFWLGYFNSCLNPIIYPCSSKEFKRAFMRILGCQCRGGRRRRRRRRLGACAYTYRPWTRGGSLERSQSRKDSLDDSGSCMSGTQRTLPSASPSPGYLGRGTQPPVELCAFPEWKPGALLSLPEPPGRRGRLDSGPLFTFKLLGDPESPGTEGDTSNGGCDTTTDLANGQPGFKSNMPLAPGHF
As to the kind of experiment: DRUGMATRIX: Alpha-1B adrenergic receptor radioligand binding (ligand: prazosin). It counts as cell membranes, Wistar, Liver, Membrane. Conditions: Not Active = under 50% inhibition at 10 µM.

The term IC50 denotes the concentration that gives 50% inhibition. As a reminder, the Ki is a dissociation constant, usually derived from enzyme kinetics or from competition with a known ligand.

Insulin receptor, sequence (P15127 27-759 limits assumed): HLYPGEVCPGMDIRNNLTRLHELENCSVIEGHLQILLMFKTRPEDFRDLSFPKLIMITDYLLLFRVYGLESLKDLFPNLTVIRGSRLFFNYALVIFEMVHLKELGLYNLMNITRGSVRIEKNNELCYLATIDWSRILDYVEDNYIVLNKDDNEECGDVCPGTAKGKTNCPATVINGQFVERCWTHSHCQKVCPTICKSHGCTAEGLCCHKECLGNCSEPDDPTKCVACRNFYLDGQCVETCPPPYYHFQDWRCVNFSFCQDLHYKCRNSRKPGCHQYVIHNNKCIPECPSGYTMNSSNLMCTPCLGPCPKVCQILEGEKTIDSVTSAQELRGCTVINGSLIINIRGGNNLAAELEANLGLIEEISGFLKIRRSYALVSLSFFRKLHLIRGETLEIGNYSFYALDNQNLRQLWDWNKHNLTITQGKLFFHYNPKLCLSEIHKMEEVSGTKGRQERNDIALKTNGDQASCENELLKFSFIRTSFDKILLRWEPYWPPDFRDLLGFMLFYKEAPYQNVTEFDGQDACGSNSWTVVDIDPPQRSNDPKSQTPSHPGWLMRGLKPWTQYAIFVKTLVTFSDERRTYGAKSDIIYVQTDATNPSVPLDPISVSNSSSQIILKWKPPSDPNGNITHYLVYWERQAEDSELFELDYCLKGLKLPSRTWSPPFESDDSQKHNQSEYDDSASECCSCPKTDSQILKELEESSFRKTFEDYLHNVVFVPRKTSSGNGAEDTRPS
Insulin receptor, sequence (P15127 764-1383 limits assumed): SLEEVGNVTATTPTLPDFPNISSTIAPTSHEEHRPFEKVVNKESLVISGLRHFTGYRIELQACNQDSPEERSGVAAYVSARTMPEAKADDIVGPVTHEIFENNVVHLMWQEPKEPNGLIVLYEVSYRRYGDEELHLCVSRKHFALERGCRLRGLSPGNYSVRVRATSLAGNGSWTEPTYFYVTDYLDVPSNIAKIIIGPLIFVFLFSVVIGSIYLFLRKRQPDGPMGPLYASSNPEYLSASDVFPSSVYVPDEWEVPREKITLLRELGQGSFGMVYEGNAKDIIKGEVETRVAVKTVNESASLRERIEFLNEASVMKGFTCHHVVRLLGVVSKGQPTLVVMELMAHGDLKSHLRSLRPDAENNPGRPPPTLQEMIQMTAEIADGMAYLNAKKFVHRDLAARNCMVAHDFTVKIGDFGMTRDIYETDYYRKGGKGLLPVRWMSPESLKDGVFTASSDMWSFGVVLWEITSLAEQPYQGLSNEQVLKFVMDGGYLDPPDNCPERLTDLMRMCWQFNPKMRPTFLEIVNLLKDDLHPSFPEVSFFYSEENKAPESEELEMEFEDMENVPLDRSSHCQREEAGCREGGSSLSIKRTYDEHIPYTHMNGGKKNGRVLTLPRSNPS
Melanocortin receptor 3, sequence (P41968 whole entry): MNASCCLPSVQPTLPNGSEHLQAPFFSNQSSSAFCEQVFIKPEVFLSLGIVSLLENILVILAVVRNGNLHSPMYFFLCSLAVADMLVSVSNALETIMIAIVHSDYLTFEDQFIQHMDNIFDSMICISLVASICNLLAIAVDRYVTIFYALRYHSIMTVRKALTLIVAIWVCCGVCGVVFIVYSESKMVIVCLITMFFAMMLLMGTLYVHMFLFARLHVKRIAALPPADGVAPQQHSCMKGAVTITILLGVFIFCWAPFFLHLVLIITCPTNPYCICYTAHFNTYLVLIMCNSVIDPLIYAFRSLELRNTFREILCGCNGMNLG

For `COc1ccc(CCN(C)CCCC(C#N)(c2ccc(OC)c(OC)c2)C(C)C)cc1OC` (centres undefined), the IC50 entry on Insulin receptor, at Melanocortin receptor 3 (hek293), on Melanocortin receptor 4 (hek293), against Nitric oxide synthase 1 and on Adenosine receptor A2a was “Not Active” each time.

`CC(C)Cc1ccc([C@@H](C)C(=O)O)cc1` [(R)-IBUPROPHEN]: the IC50 entry (in assay [1]; on Insulin receptor; against Melanocortin receptor 3 (hek293); against Melanocortin receptor 4 (hek293); at Nitric oxide synthase 1; at Adenosine receptor A2a) was “Not Active” each time.

Take `CC(C)NCC(O)c1ccc(O)c(O)c1` (centres undefined) [ISOPROTERENOL]: the 50% inhibitory concentration (IC50) result (in assay [1]; at Insulin receptor; at Melanocortin receptor 3 (hek293); against Melanocortin receptor 4 (hek293); against Nitric oxide synthase 1; at Adenosine receptor A2a) was “Not Active” each time.

As for `NC(=O)N1C(=O)/C(=C(\O)c2cccs2)c2cc(Cl)ccc21` [TENIDAP], the IC50 entry (in assay [1]; against Insulin receptor; against Melanocortin receptor 3 (hek293); on Melanocortin receptor 4 (hek293); against Nitric oxide synthase 1; on Adenosine receptor A2a) was “Not Active” in each case.

Turning to `NC1CCN(c2nc3c(cc2F)c(=O)c(C(=O)O)cn3-c2ccc(F)cc2F)C1` (centres undefined) [TOSUFLOXACIN], the IC50 entry (in assay [1]; against Insulin receptor; against Melanocortin receptor 3 (hek293); at Melanocortin receptor 4 (hek293); at Nitric oxide synthase 1; at Adenosine receptor A2a) was “Not Active” each time.

Turning to `N#Cc1ccc(C(c2ccc(C#N)cc2)n2cncn2)cc1` [LETROZOLE], the 50% inhibitory concentration (IC50) result (in assay [1]; against Insulin receptor; against Melanocortin receptor 3 (hek293); on Melanocortin receptor 4 (hek293); at Nitric oxide synthase 1; at Adenosine receptor A2a) was “Not Active” throughout.

For `O=C(Nc1ccc(Br)cc1)c1cc(Br)cc(Br)c1O` [TRIBROMSALAN], the IC50 entry (in assay [1]; on Insulin receptor; on Melanocortin receptor 3 (hek293); on Melanocortin receptor 4 (hek293); against Nitric oxide synthase 1; at Adenosine receptor A2a) was “Not Active” throughout.

For the compound `O=C1Nc2ccc(Cl)cc2C(c2ccccc2Cl)=NC1O` (centres undefined) [LORAZEPAM], the IC50 result (in assay [1]; on Insulin receptor; against Melanocortin receptor 3 (hek293); at Melanocortin receptor 4 (hek293); at Nitric oxide synthase 1; at Adenosine receptor A2a) was “Not Active” throughout.

As to `CC(C)Oc1ccc2c(=O)c(-c3ccccc3)coc2c1` [IPRIFLAVONE], the IC50 entry (in assay [1]; on Insulin receptor; against Melanocortin receptor 3 (hek293); against Melanocortin receptor 4 (hek293); against Nitric oxide synthase 1; on Adenosine receptor A2a) was “Not Active” throughout.

As for `CNC1(c2ccccc2Cl)CCCCC1=O` (centres undefined) [KETAMINE], the IC50 entry (in assay [1]; at Insulin receptor; at Melanocortin receptor 3 (hek293); against Melanocortin receptor 4 (hek293); on Nitric oxide synthase 1; on Adenosine receptor A2a) was “Not Active” each time.

With `O=C(O)c1cn(-c2ccc(F)cc2)c2cc(N3CCNCC3)c(F)cc2c1=O` [SARAFLOXACIN], the IC50 entry (in assay [1]; against Insulin receptor; against Melanocortin receptor 3 (hek293); against Melanocortin receptor 4 (hek293); at Nitric oxide synthase 1; at Adenosine receptor A2a) was “Not Active” throughout.

For `CCN(CC)CCOc1ccc(/C(=C(/Cl)c2ccccc2)c2ccccc2)cc1` [ENCLOMIPHENE], the IC50 entry against Insulin receptor, against Melanocortin receptor 3 (hek293), on Melanocortin receptor 4 (hek293), against Nitric oxide synthase 1 and at Adenosine receptor A2a was “Not Active” in each case.

As for SODIUM ORTHOVANAD, the IC50 entry (in assay [1]; on Insulin receptor; against Melanocortin receptor 3 (hek293); on Melanocortin receptor 4 (hek293); at Nitric oxide synthase 1; at Adenosine receptor A2a) was “Not Active” each time. The Ki result (in assay [1]; at Insulin receptor; at Melanocortin receptor 3 (hek293); at Melanocortin receptor 4 (hek293); at Nitric oxide synthase 1; at Adenosine receptor A2a) was “Not Active” each time.

For `Cn1c(=O)c2nc[nH]c2n(C)c1=O.O` [THEOPHYLLINE], the 50% inhibitory concentration (IC50) result (in assay [1]; at Insulin receptor; on Melanocortin receptor 3 (hek293); against Melanocortin receptor 4 (hek293); against Nitric oxide synthase 1) was “Not Active” each time.

On to `CO[C@@H]1[C@@H](OC)[C@H](C)[C@@](O)(CC(=O)O)O[C@H]1[C@H](C)[C@H]1O[C@@]2(CC[C@@](C)([C@H]3CC[C@@](C)([C@@H]4O[C@@H]([C@H]5O[C@](C)(O)[C@H](C)C[C@@H]5C)C[C@@H]4O[C@@H]4C[C@H](OC)[C@@H](OC)[C@H](C)O4)O3)O2)C[C@H](O)[C@H]1C` [MADURAMICIN ACID], for which the IC50 entry at Insulin receptor, at Melanocortin receptor 3 (hek293), against Melanocortin receptor 4 (hek293), at Nitric oxide synthase 1 and at Adenosine receptor A2a was “Not Active” throughout.

In the case of `CN[C@H]1CC[C@@H](c2ccc(Cl)c(Cl)c2)c2ccccc21` [SERTRALINE], the IC50 result on Insulin receptor, on Melanocortin receptor 3 (hek293), at Melanocortin receptor 4 (hek293), against Nitric oxide synthase 1 and at Adenosine receptor A2a was “Not Active” in each case.

With `CCN(CC)CC(=O)Nc1c(C)cccc1C` [LIDOCAINE], the IC50 entry (in assay [1]; against Insulin receptor; on Melanocortin receptor 3 (hek293); against Melanocortin receptor 4 (hek293); against Nitric oxide synthase 1; at Adenosine receptor A2a) was “Not Active” throughout.

Turning to `CN(C)CCOC(c1ccccc1)c1ccccc1` [DIPHENHYDRAMINE], the IC50 entry against Insulin receptor, against Melanocortin receptor 3 (hek293), at Melanocortin receptor 4 (hek293), against Nitric oxide synthase 1 and at Adenosine receptor A2a was “Not Active” in each case.

Regarding `CN(C/C=C/C#CC(C)(C)C)Cc1cccc2ccccc12` [TERBINAFINE], the IC50 result (in assay [1]; at Insulin receptor; against Melanocortin receptor 3 (hek293); against Melanocortin receptor 4 (hek293); on Nitric oxide synthase 1; at Adenosine receptor A2a) was “Not Active” each time.

For the compound `CCCCNc1ccc(C(=O)OCCN(C)C)cc1` [TETRACAINE], the IC50 result (in assay [1]; on Insulin receptor; at Melanocortin receptor 3 (hek293); against Melanocortin receptor 4 (hek293); on Nitric oxide synthase 1; at Adenosine receptor A2a) was “Not Active” each time.

In the case of `CC[C@@H](C(=O)[C@@H](C)[C@@H](O)[C@H](C)[C@@H]1O[C@@H]([C@@H](CC)C(=O)O)CC[C@@H]1C)[C@H]1O[C@]2(C=C[C@@H](O)[C@]3(CC[C@@](C)([C@H]4CC[C@](O)(CC)[C@H](C)O4)O3)O2)[C@H](C)C[C@@H]1C` [SALINOMYCIN], the IC50 result (in assay [1]; against Insulin receptor; against Melanocortin receptor 3 (hek293); on Melanocortin receptor 4 (hek293); on Nitric oxide synthase 1; on Adenosine receptor A2a) was “Not Active” throughout.

For `Cc1c(C)c2c(c(C)c1O)CCC(C)(CN1CCN(c3cc(N4CCCC4)nc(N4CCCC4)n3)CC1)O2` (centres undefined), the IC50 result is “Not Active” in assay [1]; “Not Active” on Insulin receptor; 17.3 µM on Melanocortin receptor 3 (read-out: IC50); 58 µM on Melanocortin receptor 4 (read-out: IC50); “Not Active” against Nitric oxide synthase 1; “Not Active” on Adenosine receptor A2a. Besides, the results for the inhibition constant Ki on Melanocortin receptor 3 (read-out: Ki) and at Melanocortin receptor 4 (read-out: Ki) were 15.1 µM and 55.8 µM, respectively.

Regarding `Clc1ccccc1CN1CCc2sccc2C1` [TICLOPIDINE], the IC50 result (in assay [1]; against Insulin receptor; at Melanocortin receptor 3 (hek293); on Melanocortin receptor 4 (hek293); against Nitric oxide synthase 1; at Adenosine receptor A2a) was “Not Active” throughout.

`Fc1ccc(C(c2ccc(F)cc2)N2CCN(C/C=C/c3ccccc3)CC2)cc1` [FLUNARIZINE]: the IC50 result at Insulin receptor, against Melanocortin receptor 3 (hek293), on Melanocortin receptor 4 (hek293), against Nitric oxide synthase 1 and at Adenosine receptor A2a was “Not Active” in each case.

For `CS(=O)(=O)c1ccc([C@@H](O)[C@@H](CO)NC(=O)C(Cl)Cl)cc1` [THIAMPHENICOL], the IC50 result (in assay [1]; at Insulin receptor; against Melanocortin receptor 3 (hek293); against Melanocortin receptor 4 (hek293); on Nitric oxide synthase 1; at Adenosine receptor A2a) was “Not Active” throughout.

`CNCCC(Oc1ccc(C(F)(F)F)cc1)c1ccccc1` (centres undefined) [FLUOXETINE]: the IC50 result on Insulin receptor, against Melanocortin receptor 3 (hek293), against Melanocortin receptor 4 (hek293), at Nitric oxide synthase 1 and at Adenosine receptor A2a was “Not Active” throughout.

In the case of `Cc1ccc(NC(=O)c2ccc(CN3CCN(C)CC3)cc2)cc1Nc1nccc(-c2cccnc2)n1` [IMATINIB], the half-inhibitory concentration (IC50) entry at Insulin receptor, at Melanocortin receptor 3 (hek293), on Melanocortin receptor 4 (hek293), on Nitric oxide synthase 1 and on Adenosine receptor A2a was “Not Active” throughout.

As to `Clc1ccc(COC(Cn2ccnc2)c2ccc(Cl)cc2Cl)cc1` (centres undefined) [ECONAZOLE], the IC50 entry on Insulin receptor, on Melanocortin receptor 4 (hek293) and against Nitric oxide synthase 1 was “Not Active” in each case.
